Several values for one entry are separate records, joined by “and”; a condition that tells them apart may be missing. Identical values can stand only once. Like-named read-outs stand apart in the source and are kept apart here.
How the values were obtained:
EGFP = details: for Basal expression levels (%): GFP(%): median green fluorescence of transfected vs untransfected cells in same well, without ligand, HEK293T tTA-d2EGFP; for η (dynamic range): ratio of GFP(%) at high (3 mM) and low (1 μM) theophylline concentrations
Experimental: The functionality of shRNA switches was assessed in mammalian cell culture. Applicants transiently transfected plasmids harboring S1 and various switch controls transcribed from a U6 promoter into HEK293T cells stably expressing EGFP (Abbas-Terki et al, 2002).
In this example, Applicants systematically evaluated the tuning capabilities of shRNA switches with the aid of a mathematical model relating ligand concentration and target gene expression levels. Standard model parameters were incorporated to represent each chemical step from the proposed mechanism (Example 7). […] These assumptions yield the following relationship between relative expression levels of the target gene (f; output) and exogenous ligand concentration (L; input): f=1−e·fshRNA[1+KComp(1+KApt·L)]^−h, (1)
The power of this model lies in the ability to calculate realistic parameter values from a minimal set of experiments: fshRNA can be found in one experiment by measuring the relative knockdown of the target gene induced by an shRNA that contributes the shRNA stem, e can be calculated from basal expression levels from a few shRNA switches that strongly prefer the active conformation, and h can be calculated by generating a ligand response curve with one shRNA switch—as long as administration of the highest ligand concentration results in negligible knockdown of the target gene. The remaining model parameters, KComp and KApt, can be found from the same response curve used to calculate […], since varying KApt only changes the EC50 while varying KComp changes both EC50 and basal expression levels. A summary of the model parameters and how values are experimentally obtained are included in Table III below.
To investigate the validity of the model, Applicants experimentally determined model parameter values as described above: fshRNA was equated to the knockdown achieved with the original shRNA targeting EGFP (sh); e was calculated from the average basal expression levels produced by shRNA switches S5, S7, S9, and S10; and KComp, KApt, and h were determined by a model fit of the theophylline response curve for S1. […] The EC50 is related to KApt and KComp according to the following: EC50=(1+KComp^−1)KApt^−1, (4)
Cell culture and transfection. All cells were maintained at 37° C. in a 5% CO2-humidified incubator. HEK293T, HEK293, HeLa, and HEK293T tTA-d2EGFP cells were maintained in minimal essential medium (MEM) alpha media (Invitrogen) supplemented with 10% fetal bovine serum (FBS) (Invitrogen), whereas MDA-MB-231 cells were maintained in RMPI 1640 with glutamine (Invitrogen) supplemented with 10% FBS. Cells were transfected one day after seeding using Fugene 6 (Roche) according to the manufacturer's instructions, followed by the immediate addition of ligand. HEK293T tTA-d2EGFP were transfected with shRNA vector (250 ng), whereas cells lacking endogenous GFP were cotransfected with shRNA vector (250 ng) and the pcDNA3.1(+) (Invitrogen) harboring the d2EGFP gene (25 ng) (Clontech). One day post-transfection the media and ligand were replaced. Transfected cells were collected three days post-transfection for flow cytometry analysis.
Cell fluorescence analysis. Three days post-transfection, cells were trypsinized and subjected to flow cytometry analysis using the Cell Lab Quanta SC MPL (Beckman Coulter). Cells were first gated twice for (1) viability as assessed by electronic volume (EV) versus side scatter (SS) and (2) green fluorescence above autofluorescence to remove a nonfluorescent subpopulation.

[1] = In-line probing of S4t under varying theophylline concentrations; assay type: binding
Text: Individual bands from the in-line gel (FIG. 1B) were quantified and normalized to an adjacent constant region to remove bias from inconsistent well loading. C56 bands were normalized to U47 bands, while C74 bands were normalized to U100-G102 bands.
Applicants designed an initial shRNA switch (S1) to target EGFP and respond to theophylline by incorporating an EGFP-targeting guide strand and the theophylline aptamer (Zimmermann et al, 2000) into our switch platform (FIG. 1A). Applicants used in-line probing (Soukup and Breaker, 1999, incorporated herein by reference, and briefly described below) to assess the structural characteristics of a T7-transcribed variant similar to S1 (S4t; FIG. 1B). In-line probing provides structural information from the ligand dependence of spontaneous RNA cleavage. See Materials and Methods section below.
In-line probing. In-line probing was conducted as described previously (Soukup et al, 1999). After heating at 70° C. for 2 min followed by slow cooling to room temperature, 5′ radiolabeled RNAs ([…]) were incubated for 40 hours at 25° C. in varying amounts of theophylline with 50 mM Tris-HCl pH 8.5, 20 mM MgCl2. Reactions were terminated by adding an equal volume of loading buffer (10 M urea, 1.5 mM EDTA). The alkaline hydrolysis ladder was generated by incubating RNA in 50 mM NaHCO3/Na2CO3 pH 9.2, 1 mM EDTA for 6 min at 95° C. The G-specific cleavage ladder was generated by incubating RNA in 1 U RNase T1 (Ambion) with 20 mM sodium citrate pH 5.0, 1 mM EDTA, 7 M urea, and 3 μg yeast RNA for 25 min at 25° C. RNAs were resolved on an 8% denaturing polyacrylamide gel, dried for 90 min at 70° C., then visualized on an FX phosphorimager (BioRAD). Band quantification was performed using the Quantity One software package (BioRAD). To account for well loading variability, quantified band intensities were normalized to an adjacent band of similar intensity showing negligible theophylline dependence.

S10: EGFP shRNA switch, larger theophylline aptamer, combined switching strand changes from S4; Table I (pCS808) (CTCGATACCAGCATCGACTCTTCGATGCCCTTGGCAGCGAGCTGACCCTGACTAGA)
Basal expression levels (%) (EGFP): 29.4%
η (dynamic range) (EGFP): 3.60

S11: EGFP shRNA switch with theophylline aptamer variant (shorter aptamer stem); Table I (pCS634) (CTCGAGATACCAGCCGAAAGGCCCTTGGCAGCTCGGGCTGACCCTGACTAGA)
Basal expression levels (%) (EGFP): 20.0%
η (dynamic range) (EGFP): 4.20

S12: EGFP shRNA switch with theophylline aptamer variant (shorter aptamer stem); Table I (pCS635) (CTCGAGATACCACCGAAAGGCCTTGGCAGCTCGGGCTGACCCTGACTAGA)
Basal expression levels (%) (EGFP): 13.4%
η (dynamic range) (EGFP): 4.06

S13: optimized EGFP shRNA switch, smaller theophylline aptamer; Table I (pCS911) (CTCGAGATACCAGCCGAAAGGCCCTTGGCAGCTCGGGCTGACCCTGCTAGA)
Basal expression levels (%) (EGFP): 16.7%
η (dynamic range) (EGFP): 5.61

S14: EGFP shRNA switch, smaller theophylline aptamer; Table I (pCS908) (CTCGATACCAGCCGAAAGGCCCTTGGCAGCGAGCTGACCCTGCTAGA)
Basal expression levels (%) (EGFP): 14.3%
η (dynamic range) (EGFP): 2.86

S15: EGFP shRNA switch, smaller theophylline aptamer; Table I (pC5909) (CTCGATACCAGCCGAAAGGCCCTTGGCAGCGGGCTGACCCTGCTAGA)
Basal expression levels (%) (EGFP): 11.2%
η (dynamic range) (EGFP): 2.56

S16: EGFP shRNA switch, smaller theophylline aptamer; Table I (pCS910) (CTCGATACCAGCCGAAAGGCCCTTGGCAGCGAGCTGACCCTGACTAGA)
Basal expression levels (%) (EGFP): 21.7%
η (dynamic range) (EGFP): 3.85

S17: EGFP shRNA switch, smaller theophylline aptamer; Table I (pCS941) (CTCGAGATACCAGCCGAAAGGCCCTTGGCAGCTCGAGCTGACCCTGCTAGA)
Basal expression levels (%) (EGFP): 17.5%
η (dynamic range) (EGFP): 3.12

S18: EGFP shRNA switch, smaller theophylline aptamer; Table I (pCS942) (CTCGAGATACCAGCCGAAAGGCCCTTGGCAGCTCGAGCTGACCCTACTAGA)
Basal expression levels (%) (EGFP): 19.5%
η (dynamic range) (EGFP): 3.89

S19: EGFP shRNA switch, smaller theophylline aptamer; Table I (pCS1001) (CTCGAGATACCAGCCGAAAGGCCCTTGGCAGCTCGGGCTGACCCTGAACTAGA)
Basal expression levels (%) (EGFP): 38.3%
η (dynamic range) (EGFP): 2.38

S20: EGFP shRNA switch, smaller theophylline aptamer; Table I (pCS1002) (CTCGAGATACCAGCCGAAAGGCCCTTGGCAGCTCGGGCTGACCCTGAAGCTAGA)
Basal expression levels (%) (EGFP): 49.8%
η (dynamic range) (EGFP): 1.75

S21: EGFP shRNA switch, smaller theophylline aptamer; Table I (pCS1003) (CTCGAGATACCAGCCGAAAGGCCCTTGGCAGCTCGGGCTGACCCTGGCTAGA)
Basal expression levels (%) (EGFP): 10.8%
η (dynamic range) (EGFP): 2.52

S22: EGFP shRNA switch, smaller theophylline aptamer; Table I (pCS1004) (CTCGATACCAGCCGAAAGGCCCTTGGCAGCGAGCTGACCCTGAACTAGA)
Basal expression levels (%) (EGFP): 35.0%
η (dynamic range) (EGFP): 2.73

S23: EGFP shRNA switch, smaller theophylline aptamer; Table I (pCS1061) (CTCGAGATACCAGCCGAAAGGCCCTTGGCAGCTCGAGCTGATCCTGCTAGA)
Basal expression levels (%) (EGFP): 16.6%
η (dynamic range) (EGFP): 3.30

S24: EGFP shRNA switch, smaller theophylline aptamer; Table I (PCS1062) (CTCGAGATACCAGCCGAAAGGCCCTTGGCAGCTCGGGCTGATCCTGCTAGA)
Basal expression levels (%) (EGFP): 10.8%
η (dynamic range) (EGFP): 3.00

S25: EGFP shRNA switch, smaller theophylline aptamer; Table I (pCS1063) (CTCGAGATACCAGCCGAAAGGCCCTTGGCAGCTCGGGCTGATCCTGACTAGA)
Basal expression levels (%) (EGFP): 11.8%
η (dynamic range) (EGFP): 2.63

B1: S1: initial shRNA switch targeting EGFP, theophylline aptamer; Table I (pCS630), SEQ ID NO: 48 (nucleic acid)
chain: GGUGCAGAUGAACUUCAGGGUCAGCUCGAGAUACCAGCAUCGACUCUUCGAUGCCCUUGGCAGCUCGGGCUGACCCUGACUAGAGCUGACCCUGAAUCAUCUGCACCUU
Basal expression levels (%) (EGFP): 33.8%
knockdown of EGFP (EGFP; compared to original shRNA (sh) and scrambled shRNA (neg), flow cytometry): intermediate knockdown
e (RNAi processing efficiency) (EGFP; from average basal expression levels of switches that highly favor the active conformation): 0.85
theophylline dependence of GFP levels (EGFP; in the presence of theophylline): increased in a dose-dependent manner
KComp (partitioning coefficient between active and inactive conformations) (EGFP; least-squares model fit of theophylline response curve): 0.17
h (Hill coefficient) (EGFP; model fit of theophylline response curve): 1.33
KApt (association constant between ligand and formed aptamer) (EGFP; model fit of theophylline response curve in cells): 0.016 µM⁻¹
η (dynamic range) (EGFP): 2.71
EC50 (EGFP; read-out: effective concentration to achieve 50% activity (EC50), theophylline concentration, GFP levels, HEK293T cells stably expressing EGFP): ~300 µM
fshRNA (relative knockdown by original shRNA) (EGFP; set by separate transfection with original shRNA targeting EGFP (sh), parameter of the S1 transfer function): 0.94

B2: S4t: T7-transcribed variant similar to S1, used for in-line probing; SEQ ID NO: 51 (nucleic acid)
chain: GGGUCAGAUGAACUUCAGGGUCAGCUCGAGAUACCAGCAUCGACUCUUCGAUGCCCUUGGCAGCUCGGGCUGACCCUGCUAGAGCUGACCCUGAAUCAUCUGACCCUU
modifications: RNA, phosphodiester; further chemistry not fully specified
KComp solved from in-line assay results ([1]; equation (4) with ratio of apparent KD to KD of aptamer alone): 0.06
ratio of the apparent KD to the KD of the aptamer alone ([1]; theophylline): ~17
Kd ([1]; theophylline, Michaelis-Menten fit, C56 bands normalized to U47, read-out: KD from in-line cleavage at C56): 3.6 µM
Kd ([1]; theophylline, Michaelis-Menten fit, C74 bands normalized to U100-G102, read-out: KD from in-line cleavage at C74): 6.8 µM
Kd ([1]; theophylline, from quantifying cleavage products at two positions, read-out: apparent dissociation constant (KD)): ~5 µM and 5 µM

Source: US8367815B2, “Modular polynucleotides for ligand-controlled regulatory systems” (California Institute of Technology, priority 2007, dated 2013)
